Several values for one entry are separate records, joined by “and”; a condition that tells them apart may be missing. Equal values may be shown once. Read-outs that look alike come from different tables or passages of the source.

The text below walks through data of patent US6989397B1, “Iron chelators and uses thereof” (University of Queensland, priority 1999, dated 2006).

Assay [1] has as its system SK-N-MC neuroepithelioma cells. Kind of assay: 59Fe release from prelabelled cells (iron efflux). The class given is cell-based, human. As to conditions: DFO 100 μM; for % Cellular Iron Released: labelled 3 h with 59Fe-transferrin 0.75 μM, reincubated 3 h at 37° C., chelators 50 μM, Mean±SD; for release of cellular 59Fe (FIG. 2A): 3 hr labelling, 3 hr reincubation, ligands 50 μM, FIG. 2A screening experiment. Here is the method:
(§1) The effect of chelators on ^59Fe uptake from ^59Fe-Tf and ^59Fe release from prelabelled cells was studied using standard procedures reported previously (Richardson et al., 1994, J. Lab Clin. Med. 124 660–71). The amount of ^59Fe internalized by the cells was measured by incubation with the general protease pronase (1 mg/ml) for 30 min at 4° C. to remove membrane-bound ^59Fe and Tf (Richardson et al., 1990; Baker et al., 1998, Biochim. Biophys. Acta 1380 21–30).
The efflux of ^59Fe from SK-N-MC cells was examined after a 3 hr labelling period with ^59Fe-Tf (0.75 μM) followed by a 3 hr reincubation in the presence and absence of DFO (100 μM) or the remainder of the ligands at 50 μM (FIG. 2A).
(§2) Table 1. The effect of DFO, 311, PCTH, PCBH, or PCBHH on ^59Fe release from BE-2 neuroblastoma cells, SK-N-MC neuroepithelioma cells, and SK-Mel-28 melanoma cells. Cells were labeled for 3 h at 37° C. with ^59Fe-transferrin (0.75 μM), washed, and then reincubated with the chelators for 3 h at 37° C. […] Results are Mean±SD of three determinations in a typical experiment.

Another assay concerns SK-Mel-28 melanoma cells. As to the kind of experiment: internalized 59Fe uptake from 59Fe-transferrin. The class given is cell-based, human. The following applies: 59Fe-transferrin 0.75 μM, 3 h at 37° C., chelators 50 μM, DFO 100 μM, mean±SD. The method, then: as §1
(§3) Table 2. The effect of DFO, 311, PCTH, PCBH, or PCBHH on internalized ^59Fe uptake from ^59Fe-transferrin by BE-2 neuroblastoma cells, SK-N-MC neuroepithelioma cells, and SK-Mel-28 melanoma cells. Cells were incubated with the chelators and ^59Fe-transferrin (0.75 μM) for 3 h at 37° C., washed, and incubated for 30 min at 4° C. with pronase (1 mg/ml) to separate the internalized from the membrane-bound ^59Fe. All chelators were screened at a concentration of 50 μM except for DFO which was examined at 100 μM. Results are mean±SD (three determinations) from a typical experiment.

The subject of assay [2] is BE-2 neuroblastoma cells. Kind of assay: internalized 59Fe uptake from 59Fe-transferrin. Type of assay: cell-based. The following applies: 59Fe-transferrin 0.75 μM, 3 h at 37° C., chelators 50 μM, DFO 100 μM, mean±SD. The method, then:
as §1, §3

For assay [3], the system named is BE-2 neuroblastoma cells. Kind of assay: 59Fe release from prelabelled cells (iron efflux). As to conditions: labelled 3 h with 59Fe-transferrin 0.75 μM, reincubated 3 h at 37° C., chelators 50 μM, DFO 100 μM, Mean±SD. The class given is cell-based. Here is the method:
as §1, §2

The subject of assay [4] is SK-N-MC neuroepithelioma cells. As to the kind of experiment: 3H-thymidine, 3H-leucine or 3H-uridine incorporation. The following applies: 20 hr with chelators 50 μM, DFO 100 μM, then label 2 h, Mean±SD. The class given is cell-based, human. Here is the method: Labelling of cells with ^3H-thymidine (20 Ci/mmol: Dupont NEN, MA, U.S.A.), ^3H-uridine (42.7 Ci/mmol/Dupont NEN, MA, U.S.A.) and ^3H-leucine (52 Ci/mmol: Dupont NEN) was estimated after precipitation with trichloroacetic acid (TCA). After a 20 hr incubation with the chelators, ^3H-leucine, ^3H-uridine or ^3H-thymidine (1 μCi/ml) were then added for 2 hrs at 37° C. Subsequently, petri dishes containing cell cultures were placed on ice and washed four times with ice-cold Hanks' balanced salt solution (BSS) and the cells detached from the plate using 1 mM EDTA in Ca/Mg-free saline. The cells were then pelleted by centrifugation, the supernatant removed and the pellet frozen at −70° C. After thawing the cells on ice, 1 ml of ice-cold 20% TCA was added and the solution then vortexed and kept on ice for 1 hr with periodic mixing. This solution was then centrifuged at 15,000 rpm for 15 mins at 4° C. and the supernatant removed. The pellet was then washed twice with 1 ml of ice-cold 10% TCA. The pellet was dissolved in 0.5 ml of 1 M NaOH and transferred to scintillation tubes with 3 ml of scintillant. Radioactivity was measured on a β-scintillation counter (LKB Wallace, Finland).
Table 3. The effect of the chelators on ^3H-thymidine, ^3H-leucine, or ^3H-uridine incorporation into SK-N-MC neuroepithelioma cells. Cells were incubated for 20 hr at 37° C. with either DFO (100 μM) or the other chelators (50 μM). Following this, either ^3H-thymidine, ^3H-leucine, or ^3H-uridine (1 μCi/mL) were added and the cells incubated for an additional 2 h at 37° C. (see Methods for details). Results are Mean±SD (4–5 determinations) from a typical experiment of 2–4 experiments performed.

The subject of assay [5] is SK-N-MC neuroepithelioma cells. As to the kind of experiment: cellular proliferation, MTT assay. Type of assay: cell-based, human. As to conditions: 90 h incubation, chelators 0.39–50 μM, read-out: IC50, inhibition of growth of SK-N-MC cells. The method, then:
FIG. 4. The effect of chelator concentration on the proliferation of SK-N-MC neuroepithelioma cells. Cells were incubated in the presence and absence of the chelators (0–50 μM) for 90 h at 37° C. After this incubation period, cellular density was measured via the MTT assay. Each data point represents the mean of four replicates in a typical experiment of two experiments performed.
The effects of the chelators on the proliferation of SK-N-MC neuroepithelioma cells were examined using the MTT (3-(4,5-dimethylthiazol-2-yl)-2,5-diphenyltetrazolium) assay by essentially the same method as described previously (Richardson et al., 1995). Cellular proliferation was examined by seeding cells in 96-well microtitre plates at 15,000 cells/well in 0.1 mL of complete medium containing human diferric Tf (1.25 μM). […] The cells were allowed to grow overnight and the chelators were then added in 0.1 mL of complete medium containing differic transferrin (1.25 μM). The final concentrations of the chelators were 0.39–50 μM. Control samples contained complete medium and diferric Tf (1.25 μM). Cells were incubated with the chelators for 90 hrs at 37° C. in a humidified atmosphere containing 95% air and 5% CO2. After this incubation, 0.01 mL of MTT was added to each well and the plates incubated for 2 hrs at 37° C. The cells were solubilized by adding 0.1 mL of 10% SDS-50% isobutanol in 0.01 M HCl and the plates were read at 570 nm on a scanning multiwell spectrophotometer (Titertek Multiscan; Beckman Instruments Inc., California). As shown previously for the SK-N-MC cell line, MTT colour formation was directly proportional to the number of viable cells (Richardson et al., 1995).

For the compound `O=C(NN=Cc1ccccn1)c1ccccc1` [PCBH, 2-pyridylcarboxaldehyde benzoyl hydrazone], the “% Cellular Iron Released” value in assay [1] came out at 47 ± 3%; in the assay on BE-2 neuroblastoma cells [3], 44 ± 1%. For the same compound, the figures for the “Internalised Iron Uptake (% Control)” value with SK-Mel-28 melanoma cells and in the assay with BE-2 neuroblastoma cells [2] were 36 ± 6 % Control and 25 ± 4 % Control, respectively. Further, in assay [4], the “3H-Leucine incorporation, % Control” value was 30 ± 13 % Control. In addition, the “3H-Thymidine incorporation, % Control” value in assay [4] is 72 % Control and 72 ± 16 % Control. Also, in assay [4], the “3H-Uridine incorporation, % Control” value is listed as 31 ± 9 % Control. Further, the IC50 (as a rule, the concentration at which inhibition is half-maximal) in assay [5] is 50 µM.

Consider `O=C(NN=Cc1ccco1)c1ccncc1` [FIH, 2furoylcarboxaldehyde isonicotinoyl hydrazone], for which the “release of cellular 59Fe (FIG. 2A)” value in assay [1] is recorded as “did not appreciably increase”. In addition, in assay [4], the “3H-Leucine incorporation, % Control” value stood at 78 ± 5 % Control; the “3H-Thymidine incorporation, % Control” value was 17 ± 4 % Control; the “3H-Uridine incorporation, % Control” value came to 48 ± 10 % Control.

With `O=C(NN=Cc1ccccn1)c1cccs1` [PCTH, 2-pyridylcarboxaldehyde 2-thiophenecarboxyl hydrazone], the “% Cellular Iron Released” value in assay [1] was 51 ± 5%. Besides, the “Internalised Iron Uptake (% Control)” value in the assay on SK-Mel-28 melanoma cells amounted to 38 ± 6 % Control. The “Internalised Iron Uptake (% Control)” value in the assay on BE-2 neuroblastoma cells [2] was determined as 25 ± 3 % Control. Further, in the assay on BE-2 neuroblastoma cells [3], the “% Cellular Iron Released” value is given as 50 ± 1%. In assay [4], the “3H-Leucine incorporation, % Control” value was 21 ± 6 % Control; the “3H-Thymidine incorporation, % Control” value was 64 % Control and 64 ± 14 % Control; the “3H-Uridine incorporation, % Control” value was 43 ± 2 % Control.

With `CC(=O)N(O)CCCCCNC(=O)CCC(=O)N(O)CCCCCNC(=O)CCC(=O)N(O)CCCCCN` [DFO, desferrioxamine, reference compound], in assay [1], the “release of cellular 59Fe (FIG. 2A)” value stood at 19% and the “% Cellular Iron Released” value is listed as 18 ± 3%. In addition, in the assay with SK-Mel-28 melanoma cells, the “Internalised Iron Uptake (% Control)” value was 98 % Control and 98 ± 7 % Control. Moreover, in the assay with BE-2 neuroblastoma cells [2], the “Internalised Iron Uptake (% Control)” value is 42 % Control and 42 ± 3 % Control. Further, in the assay with BE-2 neuroblastoma cells [3], the “% Cellular Iron Released” value was found to be 44 ± 2%. In addition, in assay [4], the “3H-Leucine incorporation, % Control” value is 9 % Control and 9 ± 0.7 % Control; the “3H-Thymidine incorporation, % Control” value was 29 ± 13 % Control; the “3H-Uridine incorporation, % Control” value was 34 % Control and 34 ± 5 % Control. The half-inhibitory concentration (IC50) in assay [5] (Homo sapiens, SK-N-MC) was found to be 47 µM.

On to `O=C(NN=Cc1c(O)ccc2ccccc12)c1ccncc1` [Chelator 311, 2-hydroxy-1-naphthylaldehyde isonicotinoyl hydrazone, reference compound], for which the “% Cellular Iron Released” value in assay [1] is 49 ± 1%. Besides, in the assay on SK-Mel-28 melanoma cells, the “Internalised Iron Uptake (% Control)” value is listed as 9 ± 1 % Control. Moreover, the “Internalised Iron Uptake (% Control)” value in the assay with BE-2 neuroblastoma cells [2] came out at 8 ± 1 % Control. Moreover, in the assay with BE-2 neuroblastoma cells [3], the “% Cellular Iron Released” value worked out at 52 ± 1%. Besides, in assay [4], the “3H-Leucine incorporation, % Control” value is 2 % Control and 2 ± 0.3 % Control; the “3H-Thymidine incorporation, % Control” value is 0.1 % Control and 0.1 ± 0.1 % Control; the “3H-Uridine incorporation, % Control” value is 5 % Control and 5 ± 2 % Control. The IC50 in assay [5] was 2 µM.
